# Target: T1, IDO1 (Homo sapiens, UniProt P14902)
# T1 construct: endogenous in cells; host or cells: HeLa cells (ATCC), IFNgamma-induced
# Experiment: IDO1 cell-based assay (HeLa cells, IFNgamma-induced, N-formylkynurenine/L-tryptophan by RFMS)
# Conditions: 10 ng/mL IFNgamma, 24 hours
# How it was run: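 N-formylkynurenine and tryptophan peak areas in media measured by RFMS (C18, isocratic, d-Trp standard), giving IC50 values by regression. Source: HeLa cells incubated 24 h with IFNgamma (10 ng/mL) plus test compound at 0.5% DMSO; parallel CellTiter-Glo viability read.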
# T1 sequence (P14902 whole entry): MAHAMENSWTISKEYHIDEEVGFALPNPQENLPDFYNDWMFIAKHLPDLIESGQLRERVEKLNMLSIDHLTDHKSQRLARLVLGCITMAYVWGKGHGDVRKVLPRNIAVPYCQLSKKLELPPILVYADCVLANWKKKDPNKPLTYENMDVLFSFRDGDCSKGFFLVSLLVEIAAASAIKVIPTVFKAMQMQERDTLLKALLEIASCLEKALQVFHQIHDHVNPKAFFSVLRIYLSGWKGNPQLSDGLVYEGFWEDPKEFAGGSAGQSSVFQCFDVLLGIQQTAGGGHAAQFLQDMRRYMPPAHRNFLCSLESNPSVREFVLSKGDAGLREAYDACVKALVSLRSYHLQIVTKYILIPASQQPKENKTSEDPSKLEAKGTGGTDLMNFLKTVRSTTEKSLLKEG
row,Compound,IC50
1,"CC[C@@H](NC(=O)c1ccc(C#N)cc1)[C@H]1[C@@H]2C[C@@H](n3nnc(C(=O)OC)c3C(=O)OC)C[C@@H]21 [Compound 300, dimethyl 1-((1R,3S,5S,6r)-6-((R)-1-(4-cyanobenzamido)propyl)bicyclo[3.1.0]hexan-3-yl)-1H-1,2,3-triazole-4,5-dicarboxylate]",< 200 nM
2,"N#Cc1ccc(C(=O)NC[C@@H]2[C@H]3C[C@H](n4cnc5cc(F)c(F)cc54)C[C@@H]23)cc1 [Compound 302, 4-cyano-N-(((1R,3s,5S,6r)-3-(5,6-difluoro-1H-benzo[d]imidazol-1-yl)bicyclo[3.1.0]hexan-6-yl)methyl)benzamide]",< 200 nM
3,"CC[C@@H](NC(=O)c1ccc(Cl)cc1)[C@H]1[C@@H]2C[C@H](c3cncc(C4CC4)c3)C[C@@H]21 [Compound 303, 4-chloro-N-((R)-1-((1R,3R,5S,6r)-3-(5-cyclopropylpyridin-3-yl)bicyclo[3.1.0]hexan-6-yl)propyl)benzamide]",< 200 nM
4,"CC[C@@H](NC(=O)c1ccc(Cl)cc1)[C@H]1[C@@H]2C[C@@H](n3cc(I)cn3)C[C@@H]21 [Compound 304, 4-chloro-N-((R)-1-((1R,3S,5S,6r)-3-(4-iodo-1H-pyrazol-1-yl)bicyclo[3.1.0]hexan-6-yl)propyl)benzamide]",< 200 nM
5,"C=Cc1cnn([C@@H]2C[C@@H]3[C@H](C2)[C@H]3[C@@H](CC)NC(=O)c2ccc(Cl)cc2)c1 [Compound 305, 4-chloro-N-((R)-1-((1R,3S,5S,6r)-3-(4-vinyl-1H-pyrazol-1-yl)bicyclo[3.1.0]hexan-6-yl)propyl)benzamide]",< 200 nM
6,"CC[C@@H](NC(=O)c1ccc(F)cc1)[C@H]1[C@@H]2C[C@@H](n3cnc4cc(F)c(F)cc43)C[C@@H]21 [Compound 306, N—((R)-1-((3S,6s)-3-(5,6-difluoro-1H-benzo[d]imidazol-1-yl)bicyclo[3.1.0]hexan-6-yl)propyl)-4-fluorobenzamide]",< 200 nM
7,"CC[C@@H](NC(=O)c1ccnc(C)c1)[C@H]1[C@@H]2C[C@@H](n3cnc4cc(F)c(F)cc43)C[C@@H]21 [Compound 308, N-((R)-1-((1R,3S,5S,6r)-3-(5,6-difluoro-1H-benzo[d]imidazol-1-yl)bicyclo[3.1.0]hexan-6-yl)propyl)-2-methylisonicotinamide]",200 to 2000 nM
8,"CC[C@@H](NC(=O)c1csc(C)n1)[C@H]1[C@@H]2C[C@@H](n3cnc4cc(F)c(F)cc43)C[C@@H]21 [Compound 309, N-((R)-1-((1R,3S,5S,6r)-3-(5,6-difluoro-1H-benzo[d]imidazol-1-yl)bicyclo[3.1.0]hexan-6-yl)propyl)-2-methylthiazole-4-carboxamide]",200 to 2000 nM
9,"CC[C@@H](NC(=O)c1cccc(Cl)c1)[C@H]1[C@@H]2C[C@@H](n3cnc4cc(F)c(F)cc43)C[C@@H]21 [Compound 310, 3-chloro-N-((R)-1-((1R,3S,5S,6r)-3-(5,6-difluoro-1H-benzo[d]imidazol-1-yl)bicyclo[3.1.0]hexan-6-yl)propyl)benzamide]",< 200 nM
10,"CC[C@@H](NC(=O)c1ccc(C)nc1)[C@H]1[C@@H]2C[C@@H](n3cnc4cc(F)c(F)cc43)C[C@@H]21 [Compound 311, N-((R)-1-((1R,3S,5S,6r)-3-(5,6-difluoro-1H-benzo[d]imidazol-1-yl)bicyclo[3.1.0]hexan-6-yl)propyl)-6-methylnicotinamide]",< 200 nM
11,"CC[C@@H](NC(=O)c1cccc(F)c1)[C@H]1[C@@H]2C[C@@H](n3cnc4cc(F)c(F)cc43)C[C@@H]21 [Compound 312, N-((R)-1-((1R,3S,5S,6r)-3-(5,6-difluoro-1H-benzo[d]imidazol-1-yl)bicyclo[3.1.0]hexan-6-yl)propyl)-3-fluorobenzamide]",< 200 nM
12,"CC[C@@H](NC(=O)c1cccc(C#N)c1)[C@H]1[C@@H]2C[C@@H](n3cnc4cc(F)c(F)cc43)C[C@@H]21 [Compound 313, 3-cyano-N-((R)-1-((1R,3S,5S,6r)-3-(5,6-difluoro-1H-benzo[d]imidazol-1-yl)bicyclo[3.1.0]hexan-6-yl)propyl)benzamide]",< 200 nM
13,"O=C(NC[C@@H]1[C@H]2C[C@H](n3cnc4cc(F)c(F)cc43)C[C@@H]12)c1ccc(F)cc1 [Compound 314, N-(((1R,3s,5S,6r)-3-(5,6-difluoro-1H-benzo[d]imidazol-1-yl)bicyclo[3.1.0]hexan-6-yl)methyl)-4-fluorobenzamide]",< 200 nM
14,"O=C(NC[C@@H]1[C@H]2C[C@H](n3cnc4cc(F)c(F)cc43)C[C@@H]12)c1ccc(Cl)c(F)c1 [Compound 315, 4-chloro-N-(((1R,3s,5S,6r)-3-(5,6-difluoro-1H-benzo[d]imidazol-1-yl)bicyclo[3.1.0]hexan-6-yl)methyl)-3-fluorobenzamide]",< 200 nM
15,"O=C(NC[C@@H]1[C@H]2C[C@H](n3cnc4cc(F)c(F)cc43)C[C@@H]12)c1cccc(Cl)c1 [Compound 316, 3-chloro-N-(((1R,3s,5S,6r)-3-(5,6-difluoro-1H-benzo[d]imidazol-1-yl)bicyclo[3.1.0]hexan-6-yl)methyl)benzamide]",200 to 2000 nM
16,"Cc1ccc(C(=O)NC[C@@H]2[C@H]3C[C@H](n4cnc5cc(F)c(F)cc54)C[C@@H]23)cn1 [Compound 317, N-(((1R,3s,5S,6r)-3-(5,6-difluoro-1H-benzo[d]imidazol-1-yl)bicyclo[3.1.0]hexan-6-yl)methyl)-6-methylnicotinamide]",200 to 2000 nM
17,"COc1ccc(C(=O)NC[C@@H]2[C@H]3C[C@H](n4cnc5cc(F)c(F)cc54)C[C@@H]23)cn1 [Compound 318, N-(((1R,3s,5S,6r)-3-(5,6-difluoro-1H-benzo[d]imidazol-1-yl)bicyclo[3.1.0]hexan-6-yl)methyl)-6-methoxynicotinamide]",200 to 2000 nM
18,"Cn1cc(C(=O)NC[C@@H]2[C@H]3C[C@H](n4cnc5cc(F)c(F)cc54)C[C@@H]23)cn1 [Compound 319, N-(((1R,3s,5S,6r)-3-(5,6-difluoro-1H-benzo[d]imidazol-1-yl)bicyclo[3.1.0]hexan-6-yl)methyl)-1-methyl-1H-pyrazole-4-carboxamide]",> 5000 nM
19,"O=C(NC[C@@H]1[C@H]2C[C@H](n3cnc4cc(F)c(F)cc43)C[C@@H]12)c1cccc(F)c1 [Compound 320, N-(((1R,3s,5S,6r)-3-(5,6-difluoro-1H-benzo[d]imidazol-1-yl)bicyclo[3.1.0]hexan-6-yl)methyl)-3-fluorobenzamide]",200 to 2000 nM
20,"N#Cc1cccc(C(=O)NC[C@@H]2[C@H]3C[C@H](n4cnc5cc(F)c(F)cc54)C[C@@H]23)c1 [Compound 321, 3-cyano-N-(((1R,3s,5S,6r)-3-(5,6-difluoro-1H-benzo[d]imidazol-1-yl)bicyclo[3.1.0]hexan-6-yl)methyl)benzamide]",200 to 2000 nM
21,"Cc1ccc(C(=O)NC[C@@H]2[C@H]3C[C@H](n4cnc5cc(F)c(F)cc54)C[C@@H]23)cc1 [Compound 322, N-(((1R,3s,5S,6r)-3-(5,6-difluoro-1H-benzo[d]imidazol-1-yl)bicyclo[3.1.0]hexan-6-yl)methyl)-4-methylbenzamide]",< 200 nM

# Source: patent US11173145B2, “Compounds useful as inhibitors of indoleamine 2,3-dioxygenase and/or tryptophan dioxygenase” (Board of Regents, The University of Texas System, priority 2017, dated 2021)
